US9314497B2, “E2F as a target of hormone refractory prostate cancer” (RUTGERS, THE STATE UNIVERSITY OF NEW JERSEY, priority 2009, dated 2016)
Read-outs that look alike come from different tables or passages of the source. Where no end group is shown, it is not given here.

Legend:
[1] = tested on: H-69 small cell carcinoma xenografts; assay: H-69 xenograft tumor size in nude mice; type: in vivo; conditions: 30 or 60 mg/kg of PEP-2 in PEGylated liposomes, every 4 days
Procedure: (§1) Nude mice bearing the H-69 small cell carcinoma xenografts were treated with PEP-2 encapsulated in PEGylated liposomes as previously described. Female mice (20-22 g) were inoculated […] with 10 million tumor cells suspended in 50 uL of PBS and an equal volume of matrigel. When the tumors were approximately 50 mm 3, the animals were randomized into groups of 6 and either treated with 0.06 ml of empty PEGylated liposomes, or 0.03 ml of PEGylated liposomes (30 mg/kg of PEP-2) or 0.06 ml of PEGylated liposomes (60 mg/kg of PEP-2), every 4 days. Tumor size (FIG. 10) and animal weight (FIG. 11) was measured every three days. […] Treatment of mice bearing advanced Tumors (FIG. 12) and mice with advanced tumors tolerate the encapsulated PEP-2 liposome treatment (FIG. 13).

[2] = Tolerability in tumor-bearing nude mice; type: in vivo; conditions: 60 mg/kg dose; all animals recovered quickly
Procedure: as §1

tumor cell lines [3] = assay: Cell viability after 24 h treatment (Vi-CELL automated cell counter); conditions: RPMI media and 10% fetal calf serum
tumor cell lines [4] = tested on: tumor cell lines
[5] = tested on: normal human CD34 positive cells containing hematopoeitic progenitors (HSC); conditions: 24 h exposure

What does the source list for “RQIKIWFQNRRIKWKKHHHRLSH (penetratin) [SEQ ID NO: 34]”?
tumor size [1]: Decreases the Size of Tumors; acute adverse effect [2]: acute transient distress

With HHHRLSH [SEQ ID NO: 1, HHHRLSH] as the compound, how does the “growth inhibition / cytotoxicity in tumor cell lines” value (from here on “growth inhibition / cytotoxicity”) (tumor cell lines [3]) read?
The value was “did not inhibit growth”.

Which “growth inhibition / cytotoxicity” value (tumor cell lines [4]) does the source give for `CC[C@H](C)[C@H](NC(=O)[C@H](CCCCN)NC(=O)[C@@H](NC(=O)[C@H](CCC(N)=O)NC(=O)[C@@H](N)CCCNC(=N)N)[C@@H](C)CC)C(=O)N[C@@H](Cc1c[nH]c2ccccc12)C(=O)N[C@@H](Cc1ccccc1)C(=O)N[C@@H](CCC(N)=O)C(=O)N[C@@H](CC(N)=O)C(=O)N[C@@H](CCCNC(=N)N)C(=O)N[C@@H](CCCNC(=N)N)C(=O)N[C@@H](CCSC)C(=O)N[C@@H](CCCCN)C(=O)N[C@@H](Cc1c[nH]c2ccccc12)C(=O)N[C@@H](CCCCN)C(=O)N[C@@H](CCCCN)C(=O)N[C@@H](C)C(=O)N[C@@H](C)C(=O)N[C@@H](C)C(=O)N[C@H](C(=O)N[C@@H](CC(C)C)C(=O)N[C@@H](CO)C(=O)N[C@@H](C)C(=O)O)C(C)C` [SEQ ID NO: 19, reference compound] here?
The value was “little or no effect on cell growth”.

Which “growth inhibition / cytotoxicity” value (tumor cell lines [4]) does the source give for `CC[C@H](C)[C@H](NC(=O)[C@H](CCCCN)NC(=O)[C@@H](NC(=O)[C@H](CCC(N)=O)NC(=O)[C@@H](N)CCCNC(=N)N)[C@@H](C)CC)C(=O)N[C@@H](Cc1c[nH]c2ccccc12)C(=O)N[C@@H](Cc1ccccc1)C(=O)N[C@@H](CCC(N)=O)C(=O)N[C@@H](CC(N)=O)C(=O)N[C@@H](CCCNC(=N)N)C(=O)N[C@@H](CCCNC(=N)N)C(=O)N[C@@H](CCSC)C(=O)N[C@@H](CCCCN)C(=O)N[C@@H](Cc1c[nH]c2ccccc12)C(=O)N[C@@H](CCCCN)C(=O)N[C@@H](CCCCN)C(=O)N[C@@H](Cc1c[nH]cn1)C(=O)N[C@@H](Cc1c[nH]cn1)C(=O)N[C@@H](Cc1c[nH]cn1)C(=O)N[C@@H](CCCNC(=N)N)C(=O)N[C@@H](CC(C)C)C(=O)N[C@@H](CO)C(=O)N[C@@H](Cc1c[nH]cn1)C(=O)O` [SEQ ID NO: 3] here?
Its value is “cytotoxic to most, but not all, tumor cell lines”.

What about the IC50 [5] of the same compound?
The IC50 was greater than 80 µM.
